Key:
Experiment in all cases: relative viability (nuclei count vs DMSO), 5 days (fraction); higher = more cells survive
EMC-BAC-2 = test system: EMC-BAC-2
Procedure, shortened: (§1)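 Lung cancer cell lines were pin-tool dosed in 1536-well plates on the day after seeding, with either a lone drug or a fixed anchor-drug dose plus five library-drug doses (not always all listed) in √10 steps. Nuclei were counted on 4× images after 5 days. Relative viability is the ratio of treated-well to vehicle-well nuclei counts, with each value a median of duplicate plates.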

LCLC-97TM1 = test system: LCLC-97TM1
Procedure, shortened: as §1

NCI-H1355 = test system: NCI-H1355
Procedure, shortened: as §1

NCI-H1666 = test system: NCI-H1666
Procedure, shortened: as §1

NCI-H1755 = test system: NCI-H1755
Procedure, shortened: as §1

NCI-H1793 = test system: NCI-H1793
Procedure, shortened: as §1

NCI-H1944 = test system: NCI-H1944
Procedure, shortened: as §1

NCI-H1975 = test system: NCI-H1975
Procedure, shortened: as §1

NCI-H1993 = test system: NCI-H1993
Procedure, shortened: as §1

NCI-H2009 = test system: NCI-H2009
Procedure, shortened: as §1

NCI-H2126 = test system: NCI-H2126
Procedure, shortened: as §1

NCI-H2170 = test system: NCI-H2170
Procedure, shortened: as §1

NCI-H2347 = test system: NCI-H2347
Procedure, shortened: as §1

NCI-H441 = test system: NCI-H441
Procedure, shortened: as §1

NCI-H460 = test system: NCI-H460
Procedure, shortened: as §1

NCI-H520 = test system: NCI-H520
Procedure, shortened: as §1

NCI-H647 = test system: NCI-H647
Procedure, shortened: as §1

NCI-H727 = test system: NCI-H727
Procedure, shortened: as §1

PC-14 = test system: PC-14
Procedure, shortened: as §1

PC-3 [JPC-3] = test system: PC-3 [JPC-3]
Procedure, shortened: as §1

SK-LU-1 = test system: SK-LU-1
Procedure, shortened: as §1

SW 1573 = test system: SW 1573
Procedure, shortened: as §1

Structure (SMILES): Cc1cnc(-c2cnc(NCCNc3ccc(C#N)cn3)nc2-c2ccc(Cl)cc2Cl)[nH]1 + CC1(C)CCC(c2ccc(Cl)cc2)=C(CN2CCN(c3ccc(C(=O)NS(=O)(=O)c4ccc(N[C@H](CCN5CCOCC5)CSc5ccccc5)c(S(=O)(=O)C(F)(F)F)c4)cc3)CC2)C1 [Navitoclax] (partner 0.5 µM)
- relative viability (EMC-BAC-2; first compound 0.08 µM): 1.17
- relative viability (EMC-BAC-2; first compound 0.253 µM): 1.05
- relative viability (EMC-BAC-2; first compound 0.8 µM): 1.18
- relative viability (EMC-BAC-2; first compound 2.53 µM): 1.18
- relative viability (LCLC-97TM1; first compound 0.08 µM): 0.41
- relative viability (LCLC-97TM1; first compound 0.253 µM): 0.377
- relative viability (LCLC-97TM1; first compound 0.8 µM): 0.42
- relative viability (LCLC-97TM1; first compound 2.53 µM): 0.4
- relative viability (NCI-H1355; first compound 0.08 µM): 1.03
- relative viability (NCI-H1355; first compound 0.253 µM): 0.858
- relative viability (NCI-H1355; first compound 0.8 µM): 0.884
- relative viability (NCI-H1355; first compound 2.53 µM): 0.938
- relative viability (NCI-H1666; first compound 0.08 µM): 0.921
- relative viability (NCI-H1666; first compound 0.253 µM): 0.868
- relative viability (NCI-H1666; first compound 0.8 µM): 0.835
- relative viability (NCI-H1666; first compound 2.53 µM): 1.26
- relative viability (NCI-H1755; first compound 0.08 µM): 1.07
- relative viability (NCI-H1755; first compound 0.253 µM): 0.866
- relative viability (NCI-H1755; first compound 0.8 µM): 1.01
- relative viability (NCI-H1755; first compound 2.53 µM): 0.989
- relative viability (NCI-H1793; first compound 0.08 µM): 0.399
- relative viability (NCI-H1793; first compound 0.253 µM): 0.446
- relative viability (NCI-H1793; first compound 0.8 µM): 0.283
- relative viability (NCI-H1793; first compound 2.53 µM): 0.354
- relative viability (NCI-H1944; first compound 0.08 µM): 1.03
- relative viability (NCI-H1944; first compound 0.8 µM): 0.992
- relative viability (NCI-H1944; first compound 2.53 µM): 1
- relative viability (NCI-H1975; first compound 0.08 µM): 1.12
- relative viability (NCI-H1975; first compound 0.253 µM): 0.982
- relative viability (NCI-H1975; first compound 0.8 µM): 0.933
- relative viability (NCI-H1975; first compound 2.53 µM): 0.567
- relative viability (NCI-H1993; first compound 0.08 µM): 0.976
- relative viability (NCI-H1993; first compound 0.253 µM): 0.906
- relative viability (NCI-H1993; first compound 0.8 µM): 0.996
- relative viability (NCI-H1993; first compound 2.53 µM): 0.882
- relative viability (NCI-H2009; first compound 0.08 µM): 1.15
- relative viability (NCI-H2009; first compound 0.253 µM): 1.16
- relative viability (NCI-H2009; first compound 0.8 µM): 1.28
- relative viability (NCI-H2009; first compound 2.53 µM): 1.06
- relative viability (NCI-H2126; first compound 0.08 µM): 0.881
- relative viability (NCI-H2126; first compound 0.253 µM): 0.897
- relative viability (NCI-H2126; first compound 0.8 µM): 0.878
- relative viability (NCI-H2126; first compound 2.53 µM): 0.835
- relative viability (NCI-H2170; first compound 0.08 µM): 0.638
- relative viability (NCI-H2170; first compound 0.253 µM): 0.51
- relative viability (NCI-H2170; first compound 0.8 µM): 0.517
- relative viability (NCI-H2170; first compound 2.53 µM): 0.537
- relative viability (NCI-H2347; first compound 0.08 µM): 0.947
- relative viability (NCI-H2347; first compound 0.253 µM): 0.625
- relative viability (NCI-H2347; first compound 0.8 µM): 0.832
- relative viability (NCI-H2347; first compound 2.53 µM): 0.857
- relative viability (NCI-H441; first compound 0.08 µM): 0.719
- relative viability (NCI-H441; first compound 0.253 µM): 0.535
- relative viability (NCI-H441; first compound 0.8 µM): 0.745
- relative viability (NCI-H441; first compound 2.53 µM): 0.57
- relative viability (NCI-H460; first compound 0.08 µM): 1.16
- relative viability (NCI-H460; first compound 0.253 µM): 1.12
- relative viability (NCI-H460; first compound 0.8 µM): 1.17
- relative viability (NCI-H460; first compound 2.53 µM): 1.04
- relative viability (NCI-H520; first compound 0.08 µM): 1.22
- relative viability (NCI-H520; first compound 0.253 µM): 1.13
- relative viability (NCI-H520; first compound 0.8 µM): 1.24
- relative viability (NCI-H520; first compound 2.53 µM): 1.13
- relative viability (NCI-H647; first compound 0.08 µM): 1.19
- relative viability (NCI-H647; first compound 0.253 µM): 0.718
- relative viability (NCI-H647; first compound 0.8 µM): 1.07
- relative viability (NCI-H647; first compound 2.53 µM): 0.723
- relative viability (NCI-H727; first compound 0.08 µM): 0.45
- relative viability (NCI-H727; first compound 0.253 µM): 0.432
- relative viability (NCI-H727; first compound 0.8 µM): 0.476
- relative viability (NCI-H727; first compound 2.53 µM): 0.364
- relative viability (PC-14; first compound 0.08 µM): 1.1
- relative viability (PC-14; first compound 0.253 µM): 0.883
- relative viability (PC-14; first compound 0.8 µM): 1
- relative viability (PC-14; first compound 2.53 µM): 0.895
- relative viability (PC-3 [JPC-3]; first compound 0.08 µM): 0.81
- relative viability (PC-3 [JPC-3]; first compound 0.253 µM): 0.71
- relative viability (PC-3 [JPC-3]; first compound 0.8 µM): 0.809
- relative viability (PC-3 [JPC-3]; first compound 2.53 µM): 0.729
- relative viability (SK-LU-1; first compound 0.08 µM): 0.976
- relative viability (SK-LU-1; first compound 0.253 µM): 0.807
- relative viability (SK-LU-1; first compound 0.8 µM): 1.2
- relative viability (SK-LU-1; first compound 2.53 µM): 0.692
- relative viability (SW 1573; first compound 0.08 µM): 1.29
- relative viability (SW 1573; first compound 0.253 µM): 0.801
- relative viability (SW 1573; first compound 0.8 µM): 1.01
- relative viability (SW 1573; first compound 2.53 µM): 0.685

Reference: the supplement of paper PMC10307832
